Test results as given in patent US20210222181A1, “BACTERIAL VECTORS FOR GENETIC MANIPULATION OF BACTERIA” (BIOVERSYS AG, priority 2018, published 2021).

Test system: clinical P. aeruginosa strains
Assay: Inhibition of motility of clinical P. aeruginosa strains on LB-agar plates
Type: cell-based, Pseudomonas aeruginosa
Conditions: three clinical isolates of P. aeruginosa, 10 μg/ml C15 in LB-agar, 16 h at 37° C., compared with absence of C15
Description: Motility of clinical P. aeruginosa strains was inhibited by 12-Methyl-tetradecanoic acid (C15). Three different clinical isolates of P. aeruginosa were plated on LB-agar plates in the absence (FIG. 9, left) and presence (FIG. 9, right) of 10 μg/ml C15 to inhibit cellular motility. The plates were incubated for 16 h at 37° C. […] In contrast, in the absence of C15, the colonies are diffuse and swarm into each other, making the selection of distinct single colonies in the knock-out screening process very difficult.

CCC(C)CCCCCCCCCCC(=O)O (centres unmarked) [C15, 12-Methyl-tetradecanoic acid]
cellular motility / colony morphology on Luria Bertani agar plates: inhibited the cellular motility, leading to small well-defined colonies | cellular motility / colony morphology on Luria Bertani agar plates (listed as 12-Methyl-tetradecanoic acid (C15)): Inhibition of the motility
